Measurements as given in paper PMC12615753, “Glutathione as a taste modulator: molecular mechanisms of interaction with umami and sweet taste receptors” (Food Chemistry: Molecular Sciences, 2025).
Numbering of substitutions follows the chain as printed.

Assays:
hTAS1R1/rTAS1R3(Mut1) = target: T1, hTAS1R1/rTAS1R3(Mut1) (UniProt Q7RTX1+Q923K1, A277V/L68N/R278H/S168G/S302A); experiment: Calcium assay, mutated rTAS1R3 co-expressed with hTAS1R1
T1 sequence (Q7RTX1 21-841): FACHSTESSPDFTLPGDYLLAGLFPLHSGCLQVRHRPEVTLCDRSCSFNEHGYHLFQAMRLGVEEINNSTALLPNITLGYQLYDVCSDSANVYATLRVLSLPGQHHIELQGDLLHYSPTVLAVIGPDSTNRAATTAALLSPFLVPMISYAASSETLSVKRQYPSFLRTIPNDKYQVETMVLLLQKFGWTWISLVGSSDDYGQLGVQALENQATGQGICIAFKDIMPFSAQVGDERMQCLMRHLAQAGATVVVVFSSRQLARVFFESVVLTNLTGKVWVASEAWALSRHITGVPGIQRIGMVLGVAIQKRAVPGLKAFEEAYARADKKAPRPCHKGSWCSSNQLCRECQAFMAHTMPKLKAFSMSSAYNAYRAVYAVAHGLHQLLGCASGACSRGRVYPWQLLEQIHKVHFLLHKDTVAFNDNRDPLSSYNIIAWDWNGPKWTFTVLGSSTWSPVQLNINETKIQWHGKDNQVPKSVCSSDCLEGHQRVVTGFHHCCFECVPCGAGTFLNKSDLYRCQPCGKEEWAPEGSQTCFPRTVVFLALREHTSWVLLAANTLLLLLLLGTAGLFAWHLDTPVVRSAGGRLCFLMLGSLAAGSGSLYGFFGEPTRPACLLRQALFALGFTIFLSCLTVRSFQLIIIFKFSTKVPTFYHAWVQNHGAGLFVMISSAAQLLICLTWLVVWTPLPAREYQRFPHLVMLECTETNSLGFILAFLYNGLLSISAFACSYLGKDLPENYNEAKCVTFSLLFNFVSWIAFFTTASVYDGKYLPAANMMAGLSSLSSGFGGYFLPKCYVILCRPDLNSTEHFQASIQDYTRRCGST
T1 sequence (Q923K1 21-858 L68N/S168G/A277V/R278H/S302A): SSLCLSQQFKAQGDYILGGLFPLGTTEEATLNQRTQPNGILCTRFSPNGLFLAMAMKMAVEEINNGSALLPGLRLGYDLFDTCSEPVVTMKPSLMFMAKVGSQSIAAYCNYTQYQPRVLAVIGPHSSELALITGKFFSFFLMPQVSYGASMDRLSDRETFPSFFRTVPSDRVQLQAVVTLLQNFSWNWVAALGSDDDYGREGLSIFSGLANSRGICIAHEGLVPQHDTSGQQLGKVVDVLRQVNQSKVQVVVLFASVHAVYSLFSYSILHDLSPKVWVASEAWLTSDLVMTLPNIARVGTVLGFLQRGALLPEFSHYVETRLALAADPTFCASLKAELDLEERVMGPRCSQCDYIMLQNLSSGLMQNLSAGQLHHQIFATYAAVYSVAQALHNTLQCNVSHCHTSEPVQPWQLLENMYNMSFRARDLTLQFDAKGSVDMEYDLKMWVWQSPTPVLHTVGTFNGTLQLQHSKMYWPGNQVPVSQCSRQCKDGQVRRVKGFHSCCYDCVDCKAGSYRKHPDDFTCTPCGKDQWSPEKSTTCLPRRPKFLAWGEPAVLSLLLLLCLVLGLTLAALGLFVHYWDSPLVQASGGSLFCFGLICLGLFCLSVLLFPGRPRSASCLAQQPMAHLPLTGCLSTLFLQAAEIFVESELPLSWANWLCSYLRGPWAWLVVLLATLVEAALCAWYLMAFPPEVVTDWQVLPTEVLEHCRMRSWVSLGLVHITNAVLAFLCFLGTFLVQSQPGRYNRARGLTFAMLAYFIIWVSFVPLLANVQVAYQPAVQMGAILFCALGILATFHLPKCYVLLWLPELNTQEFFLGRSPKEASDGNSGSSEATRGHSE
Procedure: (§1) HEK293T/17 cells (ATCC CRL-11268) were seeded into clear bottom black 96-well plates coated with poly-D-lysine at a density of 32500 cells/well in 100 μL of DMEM containing 4.5 g/L glucose and supplemented with penicillin/streptomycin, 2 mM GlutaMAX and 10 % dialyzed fetal bovine serum. The plates were incubated for 24 h at 37 °C and 7.3 % CO2 in a humidified atmosphere. After incubation, using Fugene® 4 K (0.46 μL/well, Promega, Illkirch, France), the cells were transiently transfected with pcDNA3-hTAS1R1-WT (60 ng/well) or TAS1R1 mutants, pcDNA4-rTAS1R3 (60 ng/well), pcDNA3-Gα15i2 (10 ng/well), and pGP-CMV-GCaMP6s (Addgene #40753; 10 ng/well) as a genetically encoded calcium indicator. Twenty-four hours after transfection, the HEK293T/17 cells were rinsed with 100 μL of C1 buffer (130 mM NaCl, 5 mM KCl, 10 mM HEPES, 2 mM CaCl2, and 5 mM sodium pyruvate, pH 7.4). For each molecule tested, a semi-logarithmic concentration range was created consisting of seven increasing concentrations and a negative control (zero dose) made of buffer C1. Binary mixtures with different molecules were also made to study potential synergy. In this case, the concentration range was tested in C1 buffer containing the other molecules to be tested. The concentration ranges varied depending on the molecule, its solubility, and its effectiveness in activating the receptor. All the solutions were made on the day of the test to prevent any oxidation of the compounds. If needed, the pH of each solution was adjusted by to pH 7.4 by adding NaOH. After 20 s of basal fluorescence calcium measurement, the cells were stimulated via automatic injection of a range of compounds in eight wells, and the signal emission was recorded for an additional 70 s, via a FlexStation 3® fluorometric microplate reader (Molecular Devices, San Jose, CA, USA). As a control, molecules were also tested on mock-transfected cells with the empty vector. The emitted fluorescence was measured at a wavelength of 510 nm after excitation at 488 nm. Each measurement was performed in duplicate on the same plate, and the experiments were carried out at least four times. Kinetic data were acquired via SoftMax Pro 5.4.6 software (Molecular Devices). For each well, the decrease in the raw fluorescence as the relative fluorescence changed was calculated as ΔF/F0. Replicates were averaged for the wells subjected to the same stimuli, the background signal was subtracted, and the fluorescence changes in mock-transfected cells were subtracted. The half-maximal effective concentration (EC50) and maximal signal amplitude (max ∆F/F0) were calculated via non-linear regression of the sigmoidal function four-parameter logistic equation [f(x) = min + (max − min)/(1 + (x/EC50)^nH)] via SigmaPlot 15.0 software (Grafiti LLC, Palo Alto, CA, USA). […] For a clearer understanding of the results, the amplitude values in certain dose-response curves were normalized to max ∆F/F0 = 1, to eliminate the differences in amplitude.
We also selected other residues surrounding the cavity that differed from species to species and were not directly involved in ligand binding but rather in dynamic phenomena resulting in signal transmission, namely, four residues located less deep in the binding cavity that we mutated to their human counterparts (Y281H, S282A, P67S, L72W) (Mut2) (Fig. S3). Finally, we targeted positions at the interface between the VFTs of TAS1R1 and TAS1R3. […] A double mutant (E221Q and R173L) (Mut3) was thus created. For each group, we constructed multisite mutants (penta-, quadruple-, or double-mutants) to assess their combined effects efficiently.

hTAS1R1/rTAS1R3(Mut2) = target: T2, hTAS1R1/rTAS1R3(Mut2) (UniProt Q7RTX1+Q923K1, L72W/P67S/S282A/Y281H); experiment: as above; conditions: for response to the agonist alone: Mut2
T2 sequence (Q7RTX1 21-841): T1 sequence (Q7RTX1 21-841)
T2 sequence (Q923K1 21-858 P67S/L72W/Y281H/S282A): T1 sequence (Q923K1 21-858 L68N/S168G/A277V/R278H/S302A) with P47S, N48L, L52W, G148S, V257A, H258R, Y261H, S262A, A282S
Procedure: as §1
We also selected other residues surrounding the cavity that differed from species to species and were not directly involved in ligand binding but rather in dynamic phenomena resulting in signal transmission, namely, four residues located less deep in the binding cavity that we mutated to their human counterparts (Y281H, S282A, P67S, L72W) (Mut2) (Fig. S3).

Row | Compound | response to the agonist alone (hTAS1R1/rTAS1R3(Mut1); Mut1) | response to the agonist alone (hTAS1R1/rTAS1R3(Mut2)) | EC50 (hTAS1R1/rTAS1R3(Mut1)) [µM] | effect of the added compound on the response to L-Glu (hTAS1R1/rTAS1R3(Mut1); Mut1) | EC50 (hTAS1R1/rTAS1R3(Mut2)) [µM]
1 | N[C@@H](CCC(=O)O)C(=O)O [L-Glu, L-glutamic acid, reference compound] | responded | abolished | – | – | –
2 | N[C@@H](CCC(=O)N[C@@H](CS)C(=O)NCC(=O)O)C(=O)O [GSH, γ-L-glutamyl-L-cysteinyl-glycine] | reduced | abolished | 9010 ± 697 | increased | 1220 ± 488
3 | CCCC(CCC)NC(=O)c1ccc2c(c1)OCO2 [S807, N-(heptan-4-yl)benzo[d][1,3]dioxole-5-carboxamide, reference compound] | unaffected | severely impaired | 1.69 ± 0.1 | – | 1.59 ± 0.27
